Measurements from PubChem BioAssay AID256 (DTP/NCI, 2004).
“And” between values parts separate entries of the source, which are not always exact repeats. Identical values can stand only once. Toxic doses and inconclusive results are not listed.

System: CD2F1 mice, L1210 leukemia ip, survival T/C
Experiment: NCI In Vivo Anticancer Drug Screen. Data for tumor model L1210 Leukemia (intraperitoneal) in CD2F1 (CDF1) mice
Conditions: endpoint: mean survival time, higher = longer survival
Procedure, shortened: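 Activity against a transplanted murine tumor was judged by comparing the compound group with a vehicle group. The outcome in the treated animals was divided by that in the controls.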

[1] = dose: 100.0 mg/kg/injection, schedule: Q01DX001 (ip), vehicle: saline with Tween-80
[2] = dose: 200.0 mg/kg/injection, schedule: Q01DX001 (ip), vehicle: saline with Tween-80
[3] = dose: 400.0 mg/kg/injection, schedule: Q01DX001 (ip), vehicle: saline with Tween-80
[4] = dose: 12.5 mg/kg/injection, schedule: Q01DX009 (ip), vehicle: saline with Tween-80
[5] = dose: 25.0 mg/kg/injection, schedule: Q01DX009 (ip), vehicle: saline with Tween-80
[6] = dose: 50.0 mg/kg/injection, schedule: Q01DX009 (ip), vehicle: saline with Tween-80
[7] = dose: 100.0 mg/kg/injection, schedule: Q01DX009 (ip), vehicle: saline with Tween-80
[8] = dose: 200.0 mg/kg/injection, schedule: Q01DX009 (ip), vehicle: saline with Tween-80
[9] = dose: 100.0 mg/kg/injection, schedule: Q04DX003 (ip), vehicle: saline with Tween-80
[10] = dose: 200.0 mg/kg/injection, schedule: Q04DX003 (ip), vehicle: saline with Tween-80
[11] = dose: 400.0 mg/kg/injection, schedule: Q04DX003 (ip), vehicle: saline with Tween-80
[12] = dose: 12.5 mg/kg/injection, schedule: Q01DX005 (ip), vehicle: water
[13] = dose: 25.0 mg/kg/injection, schedule: Q01DX005 (ip), vehicle: water
[14] = dose: 50.0 mg/kg/injection, schedule: Q01DX005 (ip), vehicle: water

With `O=C(O)CCC(=O)c1cccc(O)c1` the T/C (dose: 100.0 mg/kg/injection, schedule: Q01DX001 (ip), vehicle: saline) was 103 % of control, the T/C (dose: 200.0 mg/kg/injection, schedule: Q01DX001 (ip), vehicle: saline) was 104 % of control and the T/C (dose: 400.0 mg/kg/injection, schedule: Q01DX001 (ip), vehicle: saline) was 103 % of control.
`OC(c1ccccc1)c1ccccc1` was tested, and the T/C (dose: 100.0 mg/kg/injection, schedule: Q01DX009 (ip), vehicle: saline) was 91 % of control, the T/C (dose: 200.0 mg/kg/injection, schedule: Q01DX009 (ip), vehicle: saline) was 91 % of control and the T/C (dose: 400.0 mg/kg/injection, schedule: Q01DX009 (ip), vehicle: saline) was 91 % of control.
`CC(c1ccccc1)n1cncc1C(=O)O` (centres undefined) was tested, and the T/C [1] was 106 % of control, the T/C [2] was 97 % of control and the T/C [3] was 95 % of control.
In the case of `O=C(Nc1ccc(Cl)c(Cl)c1)C(Cl)Cl`, the T/C [4] is reported as 95 % of control, the T/C [5] is reported as 101 % of control and the T/C [6] is reported as 107 % of control.
In the case of `N/C(=N\OCc1ccccc1)c1ncn(C2CCCC2)c1N`, the T/C (dose: 75.0 mg/kg/injection, schedule: Q01DX001 (ip), vehicle: other) is reported as 102 % of control, the T/C (dose: 150.0 mg/kg/injection, schedule: Q01DX001 (ip), vehicle: other) is reported as 106 % of control and the T/C (dose: 300.0 mg/kg/injection, schedule: Q01DX001 (ip), vehicle: other) is reported as 103 % of control.
`CCCOC(=O)NCCBr` was tested, and the T/C [6] was 101 % of control, the T/C [7] was 96 % of control and the T/C [8] was 93 % of control.
With `O=C(c1cc2c3ccccc3ccc2c2ccccc12)C(Br)Br` the T/C [5] was 106 % of control, the T/C [6] was 103 % of control and the T/C [7] was 100 % of control. The T/C [9] was 93 % of control.
With `c1ccc2c3c(ccc2c1)OCCOCCOCCOCCOc1ccc2ccccc2c1-3` the T/C [1] was 91 % of control, the T/C [2] was 100 % of control and the T/C [3] was 100 % of control.
With `O=C(Nc1cccnc1)c1ccccc1` the T/C (dose: 6.25 mg/kg/injection, schedule: Q01DX009 (ip), vehicle: saline with Tween-80) was 102 % of control, the T/C [4] was 102 % of control and the T/C [5] was 113 % of control.
For `O=c1[nH]cc(CCCc2ccccc2)c(=O)[nH]1`, the T/C [9] was 97 % of control, the T/C [10] was 99 % of control and the T/C [11] was 90 % of control.
In the case of `O=[N+]([O-])c1cccn2nc(C3OC(CO)C(O)C3O)nc12` (centres undefined), the T/C [12] is reported as 96 % of control, the T/C [13] is reported as 97 % of control and the T/C [14] is reported as 94 % of control. The T/C (dose: 100.0 mg/kg/injection, schedule: Q01DX005 (ip), vehicle: water) was 100 % of control.
`Clc1cccc(N=Cc2ccc3c(c2)OCO3)c1Cl` was tested, and the T/C (dose: 100.0 mg/kg/injection, schedule: Q01DX001 (ip), vehicle: Klucel (hydroxypropylcellulose) (HPC)) was 100 % of control, the T/C (dose: 200.0 mg/kg/injection, schedule: Q01DX001 (ip), vehicle: Klucel (hydroxypropylcellulose) (HPC)) was 97 % of control and the T/C (dose: 400.0 mg/kg/injection, schedule: Q01DX001 (ip), vehicle: Klucel (hydroxypropylcellulose) (HPC)) was 103 % of control.
With `CN(C)Cc1[c-]c(CN(C)C)ccc1.[Br][Pt]` the T/C (dose: 3.12 mg/kg/injection, schedule: Q04DX003 (ip), vehicle: saline) was 96 % of control, the T/C (dose: 6.25 mg/kg/injection, schedule: Q04DX003 (ip), vehicle: saline) was 97 % of control and the T/C (dose: 12.5 mg/kg/injection, schedule: Q04DX003 (ip), vehicle: saline) was 97 % of control. The T/C (dose: 25.0 mg/kg/injection, schedule: Q04DX003 (ip), vehicle: saline) was 108 % of control, the T/C (dose: 50.0 mg/kg/injection, schedule: Q04DX003 (ip), vehicle: saline) was 97 % of control and the T/C (dose: 100.0 mg/kg/injection, schedule: Q04DX003 (ip), vehicle: saline) was 105 % of control. The T/C (dose: 200.0 mg/kg/injection, schedule: Q04DX003 (ip), vehicle: saline) was 100 % of control.
In the case of `CC(CC(O)(C(F)(F)F)C(F)(F)F)OC(=O)Nc1ccc(Cl)c(Cl)c1` (centres undefined), the T/C (dose: 100.0 mg/kg/injection, schedule: Q04DX003 (ip), vehicle: Klucel (hydroxypropylcellulose) (HPC)) is reported as 96 % of control, the T/C (dose: 200.0 mg/kg/injection, schedule: Q04DX003 (ip), vehicle: Klucel (hydroxypropylcellulose) (HPC)) is reported as 101 % of control and the T/C (dose: 400.0 mg/kg/injection, schedule: Q04DX003 (ip), vehicle: Klucel (hydroxypropylcellulose) (HPC)) is reported as 101 % of control.
With `CC(=S)NC(O)C(=O)c1ccccc1` (centres undefined) the T/C [4] was 101 % of control, the T/C [5] was 98 % of control and the T/C [6] was 98 % of control. For the same compound, the T/C [7] was 104 % of control, the T/C [8] was 93 % of control and the T/C (dose: 400.0 mg/kg/injection, schedule: Q01DX009 (ip), vehicle: saline with Tween-80) was 115 % of control.
In the case of `CCCCNC(C)(C)C(SS)c1ccc(C(F)(F)F)cc1` (centres undefined), the T/C (dose: 100.0 mg/kg/injection, schedule: Q04DX003 (ip), vehicle: other) is reported as 94 % of control and the T/C (dose: 400.0 mg/kg/injection, schedule: Q04DX003 (ip), vehicle: other) is reported as 86 % of control.
With `CCOC(=O)C(C(C)=O)c1cc(NS(=O)(=O)c2ccccc2)ccc1O` (centres undefined) the T/C [9] was 114 % of control, the T/C [10] was 103 % of control and the T/C [11] was 105 % of control.
`CN(C)/C=N\c1ncnc2c1cnn2C1OC(CO)C(O)C1O` (centres undefined) was tested, and the T/C (dose: 3.13 mg/kg/injection, schedule: Q01DX005 (ip), vehicle: water) was 96 % of control, the T/C (dose: 6.25 mg/kg/injection, schedule: Q01DX005 (ip), vehicle: water) was 102 % of control and the T/C [12] was 110 % of control. The T/C [13] was 98 % of control and 107 % of control and the T/C [14] was 113 % of control and 110 % of control.
`O=c1[nH]c(=O)n(C2OC(CO)C3OP(=O)(C45CC6CC(CC(C6)C4)C5)OC32)cc1Br` (centres undefined) was tested, and the T/C (dose: 12.5 mg/kg/injection, schedule: Q01DX005 (ip), vehicle: other) was 93 % of control, the T/C (dose: 25.0 mg/kg/injection, schedule: Q01DX005 (ip), vehicle: other) was 97 % of control and the T/C (dose: 50.0 mg/kg/injection, schedule: Q01DX005 (ip), vehicle: other) was 93 % of control. For the same compound, the T/C (dose: 100.0 mg/kg/injection, schedule: Q01DX005 (ip), vehicle: other) was 93 % of control and the T/C (dose: 200.0 mg/kg/injection, schedule: Q01DX005 (ip), vehicle: other) was 93 % of control.
With `COC(=O)C1(C)CCCC2(C)C1CCC13OCC(CC21)C(=C(C)C)C3OC(C)=O` (centres undefined) the T/C [9] was 100 % of control, the T/C [10] was 95 % of control and the T/C [11] was 100 % of control.
With `Cc1ccc(S(=O)(=O)CC(=O)O)cc1` the T/C [9] was 102 % of control and the T/C [10] was 102 % of control.
In the case of `CC(=O)OC1C(NC(=O)N(CCCl)N=O)C(OC(C)=O)C(OC(C)=O)C(NC(=O)N(CCCl)N=O)C1OC(C)=O` (centres undefined), the T/C (dose: 20.0 mg/kg/injection, schedule: Q01DX001 (ip), vehicle: saline with Tween-80) is reported as 124 % of control, the T/C (dose: 60.0 mg/kg/injection, schedule: Q01DX001 (ip), vehicle: saline with Tween-80) is reported as 164 % of control and the T/C (dose: 90.0 mg/kg/injection, schedule: Q01DX001 (ip), vehicle: saline with Tween-80) is reported as 160 % of control. The T/C (dose: 130.0 mg/kg/injection, schedule: Q01DX001 (ip), vehicle: saline with Tween-80) was 174 % of control, the T/C [2] was 168 % of control and the T/C (dose: 300.0 mg/kg/injection, schedule: Q01DX001 (ip), vehicle: saline with Tween-80) was 218 % of control.
`C/C(CCC(CC(=O)O)C(C)C)=N\NC(N)=O` (centres undefined) was tested, and the T/C [9] was 97 % of control, the T/C [10] was 97 % of control and the T/C [11] was 103 % of control.
In the case of `Cc1ccccc1N=Nc1ccccc1`, the T/C [1] is reported as 104 % of control, the T/C [2] is reported as 96 % of control and the T/C [3] is reported as 101 % of control.
With `Nc1nc(-c2cccc([N+](=O)[O-])c2)c(N=Nc2ccc(Br)cc2)s1` the T/C [1] was 96 % of control, the T/C [2] was 87 % of control and the T/C [3] was 90 % of control.
For `COc1cc(Cl)ccc1NC(=O)Nc1ccccc1C`, the T/C (dose: 25.0 mg/kg/injection, schedule: Q04DX002 (ip), vehicle: saline with Tween-80) was 90 % of control, the T/C (dose: 50.0 mg/kg/injection, schedule: Q04DX002 (ip), vehicle: saline with Tween-80) was 94 % of control and the T/C (dose: 100.0 mg/kg/injection, schedule: Q04DX002 (ip), vehicle: saline with Tween-80) was 94 % of control. For the same compound, the T/C (dose: 200.0 mg/kg/injection, schedule: Q04DX002 (ip), vehicle: saline with Tween-80) was 90 % of control and the T/C (dose: 400.0 mg/kg/injection, schedule: Q04DX002 (ip), vehicle: saline with Tween-80) was 90 % of control.
For `Nc1ncn[nH]1`, the T/C (dose: 200.0 mg/kg/injection, schedule: Q01DX009 (ip), vehicle: Klucel (hydroxypropylcellulose) (HPC)) was 95 % of control and the T/C (dose: 400.0 mg/kg/injection, schedule: Q01DX009 (ip), vehicle: Klucel (hydroxypropylcellulose) (HPC)) was 106 % of control.
With `CC1CCOC(C)(C)O1` (centres undefined) the T/C (dose: 100.0 mg/kg/injection, schedule: Q04DX002 (ip), vehicle: saline) was 100 % of control, the T/C (dose: 200.0 mg/kg/injection, schedule: Q04DX002 (ip), vehicle: saline) was 86 % of control and the T/C (dose: 400.0 mg/kg/injection, schedule: Q04DX002 (ip), vehicle: saline) was 104 % of control.
